Test results as given in patent US12115226B2, “Linker containing arylnitro, antibody-drug conjugate containing linker and use of linker” (Academy of Military Medical Sciences, priority 2018, dated 2024).
Square brackets hold non-standard residues; d marks the D form. Peptide text beside a SMILES is read from it. * marks the point of attachment. Dolaproine = CO[C@@H]([C@@H]1CCCN1)[C@@H](C)C(=O)O; Dil = CC[C@H](C)[C@H](NC)[C@@H](CC(=O)O)OC; X1 = C[C@@H](N*)[C@@H](O)c1ccccc1; NMeV = CN[C@H](C(=O)O)C(C)C

Tests used:
[1] = tested on: NCI-N87 human gastric cancer cell xenograft; assay: Efficacy in nude mice xenograft model of NCI-N87 human gastric cancer cell
Description: The tested drug was dissolved in physiological saline and administered via tail vein injection.
The NCI-N87 gastric adenocarcinoma cells (purchased from ATCC) were cultured with DMEM medium containing inactivated 10% fetal bovine serum, 100 U/mL penicillin, 100 μg/mL streptomycin, and 2 mM glutamine in an incubator at 37° C. and 5% CO2. The initial concentration of the cultured cell was 1×10^6 cells/ml, and the cells were divided into bottles for passage every 3 to 4 days after the cells were full. The cancer cells in the logarithmic growth phase at 5×10^6 cells/0.1 mL were inoculated under skin of right lateral thorax of BALB/c nude mice (female, 6-8 weeks old, 18-22 g, purchased from Beijing Ankai Yibo Biotechnology Co., Ltd.). When the tumor grew to a volume of 150 mm^3, the modeling was successful. Then the administration was started, 6 mice in each dose group were administered at the specified dose once a week, the administration volume was 5 mL/kg, and the administration was performed 4 times in total. The tumor volume was measured twice a week by measurement of the long and short diameters of tumor with vernier caliper. The volume calculation formula was: volume=0.5×long diameter×short diameter^2. When the tumor volume was measured, the mice were weighed at the same time. The relationship between the change of mouse body weight and the time of administration was recorded. […]

[2] = tested on: antigen HER2-positive breast cancer cell line BT-474; assay: Hypoxia-dependent cytotoxicity of ADC-1 (different oxygen environments); settings: for IC50: Homo sapiens
Description: The tested cell line was antigen HER2-positive breast cancer cell line BT-474. The cell culture process was as described in Example 12, in which the oxygen concentrations in the cell incubator were separately set to 0.1%, 1.0%, 5.0%, 10.0% and 20.0%.

[3] = tested on: antigen HER2-positive gastric cancer cell line NCI-N87; assay: In vitro cytotoxicity of ADC (CellTiter Glo), NCI-N87; format: cell-based, human; settings: 0.1% O2, 168 hours, ADC DAR about 4
Description: (§1) The vial containing the target cells was gently stirred in a 37° C. water bath to be thawed.
(§2) After the content was thawed, the vial was taken out from the water bath and decontaminated by immersion or spraying with 70% ethanol.
(§3) The cells were re-suspended in the culture medium, settled and distributed into a culture flask with an area of 75 cm^2.
(§4) The resulting culture was incubated in a Galaxy® CO2 incubator (48R, #C048312044) with 5% CO2 at 37° C., and the oxygen concentration in the incubator was 0.1%.
(§5) The cells were passaged three times a week at a ratio of 1:4 in a medium containing 10% […] (heat inactivated) and 1% penicillin-streptomycin solution.
(§6) For the passaged cells, the adherent cells were firstly rinsed with trypsin/EDTA solution (3 mL), then trypsin/EDTA (3 mL, T75 flask) was added, and spun to coat the cells evenly. The resulting culture was incubated at 37° C. until the cells were detached. It was observed by microscope to verify that the cells had been detached, then an equal volume of cell culture medium was added to inactivate trypsin, the detached cells were collected, and centrifuged at 200 g for 5 minutes, and then re-suspended in a fresh culture medium. […]
(§7) The cells were harvested and counted to determine the number of cells;

[4] = tested on: antigen HER2-weakly positive breast cancer cell line MCF-7; assay: In vitro cytotoxicity of ADC (CellTiter Glo), MCF-7; format: cell-based; settings: 0.1% O2, 168 hours, ADC DAR about 4
Description: as §1, §2, §3, §4, §5, §6, §7

[5] = tested on: antigen HER2-positive breast cancer cell line BT-474; assay: In vitro cytotoxicity of ADC (CellTiter Glo), BT-474; format: cell-based, human; settings: 0.1% O2, 168 hours, ADC DAR about 4
Description: as §1, §2, §3, §4, §5, §6, §7

[6] = tested on: antigen HER2-positive ovarian cancer cell line SK-OV-3; assay: In vitro cytotoxicity of ADC (CellTiter Glo), SK-OV-3; format: cell-based; settings: 0.1% O2, 168 hours, ADC DAR about 4
Description: as §1, §2, §3, §4, §5, §6, §7

[7] = tested on: antigen HER2-positive breast cancer cell line HCC1954; assay: In vitro cytotoxicity of ADC (CellTiter Glo), HCC1954; format: cell-based; settings: 0.1% O2, 168 hours, ADC DAR about 4
Description: as §1, §2, §3, §4, §5, §6, §7

[8] = tested on: antigen HER2-negative breast cancer cell line MDA-MB-468; assay: In vitro cytotoxicity of ADC (CellTiter Glo), MDA-MB-468; format: cell-based; settings: 0.1% O2, 168 hours, ADC DAR about 4
Description: as §1, §2, §3, §4, §5, §6, §7

CC(=O)O[C@@]12CO[C@@H]1C[C@H](O)[C@@]1(C)C(=O)[C@H](O)C3=C(C)[C@@H](OC(=O)[C@H](O)[C@@H](NC(=O)OC(C)(C)C)c4ccccc4)C[C@@](O)([C@@H](OC(=O)c4ccccc4)[C@H]21)C3(C)C [Doxetaxel] was tested, and the “P(Vehicle VS Doxetaxel), body weight” value [1] was 0.0422 and the “body weight of animals in the course of administration and treatment” value ([1]; nude mice) was “significant weight loss”.

For CC[C@H](C)[C@@H]([C@@H](CC(=O)N1CCC[C@H]1[C@H](OC)[C@@H](C)C(=O)N[C@H](C)[C@@H](O)c1ccccc1)OC)N(C)C(=O)[C@@H](NC(=O)[C@H](C(C)C)N(C)C(=O)OCc1ccc(OCc2cnc([N+](=O)[O-])n2C)c(NC(=O)CNCCCCCCN2C(=O)C=CC2=O)c1)C(C)C [L01-MMAE], the IC50 ([2]; BT-474, read-out: IC50, cytotoxicity to BT-474 cells, O2 0.1%) was 3.1 nM, the IC50 ([2]; BT-474, read-out: IC50, cytotoxicity to BT-474 cells, O2 1.0%) was 3.11 nM and the IC50 ([2]; BT-474, read-out: IC50, cytotoxicity to BT-474 cells, O2 5.0%) was 4.32 nM. The IC50 ([2]; BT-474, read-out: IC50, cytotoxicity to BT-474 cells, O2 10.0%) was 8.94 nM, the IC50 ([2]; BT-474, read-out: IC50, cytotoxicity to BT-474 cells, O2 20.0%) was 5.39 nM and the “increase of activity under hypoxic condition compared with normoxic condition” value ([2]; oxygen 0.1% versus 20%, BT-474) was roughly 2 times.

Work on CC[C@H](C)[C@@H]([C@@H](CC(=O)N1CCC[C@H]1[C@H](OC)[C@@H](C)C(=O)N[C@H](C)[C@@H](O)c1ccccc1)OC)N(C)C(=O)[C@@H](NC(=O)[C@@H](NC)C(C)C)C(C)C [MMAE, monomethyl auristatin E] (H-[NMeV]V[Dil][Dolaproine]-X1) yielded an IC50 [3] of 0.23 nM, an IC50 [4] of 3.81 nM and an IC50 [5] of 0.06 nM. It also gave an IC50 [6] of 0.54 nM, an IC50 [7] of 0.07 nM and an IC50 [8] of 0.13 nM.
